Values of other authors, collected in patent publication US20230372264A1 (priority 2020, published 2023).

What was measured:
Candida sp. = settings: reference [27]
Streptococcus spp. = settings: reference [27]
Staphylococcus aureus = settings: reference [27]
[1] = system: human breast cancer cells; settings: reference [16]
SARS-CoV = settings: reference [9]
[2] = system: ACE2 receptor bonds with viral S-glycoproteins; settings: in vitro cellular models, cholesterol depletion, reference [5]

In the case of `OCCc1ccc(O)c(O)c1` [hydroxytyrosol, 4-(2-hydroxyethyl)-1,2-dihydroxybenzene], the growth reduction (Candida sp.) is given as 40%, the growth reduction (Streptococcus spp.) is given as 40% and the growth reduction (Staphylococcus aureus) is given as 40%.

For hydroxypropyl-α-cyclodextrin, the “effectiveness against migration vs hydroxypropyl-β-cyclodextrin” value [1] is given as “twice as effective”.

For methyl-β-cyclodextrin [MβCD], the “inhibition of SARS-CoV infectivity” value (SARS-CoV) is given as 90% and the “number of ACE2 receptor bonds with viral S-glycoproteins” value [2] is given as “halves”.
